In the supplement of paper PMC10307832:

What was measured:
Test in all cases: relative viability (nuclei count vs DMSO), 5 days (fraction); higher = more cells survive
BEN = system: BEN
Summary of the method: (§1)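 Lung cancer cell lines were seeded in 1536-well plates and dosed by pin tool the next day, with either a single drug or a fixed anchor-drug dose combined with five library-drug doses (not always all listed) spaced in √10 steps. Five days later, one step fixed the cells and stained their nuclei (final 0.05% Triton X-100, 1% formaldehyde, 1 ug/ml Hoechst), and nuclei were counted on 4× images. Relative viability is the nuclei count in treated wells divided by the count in vehicle wells, and each value is the median of duplicate plates.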

CAL-12T = system: CAL-12T
Summary of the method: as §1

EKVX = system: EKVX
Summary of the method: as §1

HCC-15 = system: HCC-15
Summary of the method: as §1

HCC-366 = system: HCC-366
Summary of the method: as §1

HCC-44 = system: HCC-44
Summary of the method: as §1

LCLC-103H = system: LCLC-103H
Summary of the method: as §1

LOU-NH91 = system: LOU-NH91
Summary of the method: as §1

NCI-H1355 = system: NCI-H1355
Summary of the method: as §1

NCI-H1395 = system: NCI-H1395
Summary of the method: as §1

NCI-H1437 = system: NCI-H1437
Summary of the method: as §1

NCI-H1651 = system: NCI-H1651
Summary of the method: as §1

NCI-H1734 = system: NCI-H1734
Summary of the method: as §1

NCI-H1755 = system: NCI-H1755
Summary of the method: as §1

NCI-H1975 = system: NCI-H1975
Summary of the method: as §1

NCI-H2085 = system: NCI-H2085
Summary of the method: as §1

NCI-H2342 = system: NCI-H2342
Summary of the method: as §1

NCI-H358 = system: NCI-H358
Summary of the method: as §1

NCI-H441 = system: NCI-H441
Summary of the method: as §1

NCI-H460 = system: NCI-H460
Summary of the method: as §1

NCI-H838 = system: NCI-H838
Summary of the method: as §1

NCI-H1650 = system: NCI-H1650
Summary of the method: as §1

NCI-H2023 = system: NCI-H2023
Summary of the method: as §1

`C[C@@H]1CN(CC(=O)Nc2ccc3c(c2)Cc2cccc(-c4cc(=O)cc(N5CCOCC5)o4)c2S3)C[C@H](C)O1` + NC(=O)Nc1cc(-c2cccc(F)c2)sc1C(=O)N[C@H]1CCCNC1 [AZD7762] (partner 0.2 µM) gave a relative viability (BEN; first compound 0.04 µM) of 0.612, a relative viability (BEN; first compound 0.1265 µM) of 0.566 and a relative viability (BEN; first compound 0.4 µM) of 0.625. It also gave a relative viability (BEN; first compound 4 µM) of 0.645, a relative viability (CAL-12T; first compound 0.04 µM) of 0.644 and a relative viability (CAL-12T; first compound 0.1265 µM) of 0.565. The relative viability (CAL-12T; first compound 0.4 µM) was 0.594, the relative viability (CAL-12T; first compound 4 µM) was 0.38 and the relative viability (EKVX; first compound 0.04 µM) was 0.651. For the same compound, the relative viability (EKVX; first compound 0.1265 µM) was 0.751, the relative viability (EKVX; first compound 0.4 µM) was 0.713 and the relative viability (EKVX; first compound 4 µM) was 0.562. It also gave a relative viability (HCC-15; first compound 0.04 µM) of 1.18, a relative viability (HCC-15; first compound 0.1265 µM) of 1.06 and a relative viability (HCC-15; first compound 0.4 µM) of 1.37. It also gave a relative viability (HCC-15; first compound 4 µM) of 1.05, a relative viability (HCC-366; first compound 0.04 µM) of 0.247 and a relative viability (HCC-366; first compound 0.1265 µM) of 0.253. It also gave a relative viability (HCC-366; first compound 0.4 µM) of 0.163, a relative viability (HCC-366; first compound 4 µM) of 0.184 and a relative viability (HCC-44; first compound 0.04 µM) of 0.945. It also gave a relative viability (HCC-44; first compound 0.1265 µM) of 1.01, a relative viability (HCC-44; first compound 0.4 µM) of 1 and a relative viability (HCC-44; first compound 4 µM) of 0.913. The relative viability (LCLC-103H; first compound 0.04 µM) was 0.798, the relative viability (LCLC-103H; first compound 0.1265 µM) was 0.755 and the relative viability (LCLC-103H; first compound 0.4 µM) was 0.761. For the same compound, the relative viability (LCLC-103H; first compound 4 µM) was 0.631, the relative viability (LOU-NH91; first compound 0.04 µM) was 0.639 and the relative viability (LOU-NH91; first compound 0.1265 µM) was 0.775. For the same compound, the relative viability (LOU-NH91; first compound 0.4 µM) was 0.65, the relative viability (LOU-NH91; first compound 4 µM) was 0.706 and the relative viability (NCI-H1355; first compound 0.04 µM) was 0.799. It also gave a relative viability (NCI-H1355; first compound 0.1265 µM) of 0.682, a relative viability (NCI-H1355; first compound 0.4 µM) of 0.671 and a relative viability (NCI-H1355; first compound 4 µM) of 0.62. The relative viability (NCI-H1395; first compound 0.1265 µM) was 0.425, the relative viability (NCI-H1395; first compound 0.4 µM) was 0.411 and the relative viability (NCI-H1395; first compound 4 µM) was 0.406. The relative viability (NCI-H1437; first compound 0.04 µM) was 1.08, the relative viability (NCI-H1437; first compound 0.1265 µM) was 1.09 and the relative viability (NCI-H1437; first compound 0.4 µM) was 1.12. For the same compound, the relative viability (NCI-H1437; first compound 4 µM) was 0.95, the relative viability (NCI-H1651; first compound 0.04 µM) was 0.428 and the relative viability (NCI-H1651; first compound 0.1265 µM) was 0.405. The relative viability (NCI-H1651; first compound 0.4 µM) was 0.464, the relative viability (NCI-H1651; first compound 4 µM) was 0.38 and the relative viability (NCI-H1734; first compound 0.04 µM) was 0.569. The relative viability (NCI-H1734; first compound 0.1265 µM) was 0.684, the relative viability (NCI-H1734; first compound 0.4 µM) was 0.643 and the relative viability (NCI-H1734; first compound 4 µM) was 0.634. The relative viability (NCI-H1755; first compound 0.04 µM) was 0.422, the relative viability (NCI-H1755; first compound 0.1265 µM) was 0.44 and the relative viability (NCI-H1755; first compound 0.4 µM) was 0.494. It also gave a relative viability (NCI-H1755; first compound 4 µM) of 0.445, a relative viability (NCI-H1975; first compound 0.04 µM) of 0.729 and a relative viability (NCI-H1975; first compound 0.1265 µM) of 0.608. For the same compound, the relative viability (NCI-H1975; first compound 0.4 µM) was 0.624, the relative viability (NCI-H1975; first compound 4 µM) was 0.585 and the relative viability (NCI-H2085; first compound 0.04 µM) was 0.959. The relative viability (NCI-H2085; first compound 0.1265 µM) was 1.06, the relative viability (NCI-H2085; first compound 0.4 µM) was 0.997 and the relative viability (NCI-H2085; first compound 4 µM) was 0.796. For the same compound, the relative viability (NCI-H2342; first compound 0.04 µM) was 0.499, the relative viability (NCI-H2342; first compound 0.1265 µM) was 0.495 and the relative viability (NCI-H2342; first compound 0.4 µM) was 0.492. It also gave a relative viability (NCI-H2342; first compound 4 µM) of 0.441, a relative viability (NCI-H358; first compound 0.04 µM) of 0.463 and a relative viability (NCI-H358; first compound 0.1265 µM) of 0.416. It also gave a relative viability (NCI-H358; first compound 0.4 µM) of 0.539, a relative viability (NCI-H358; first compound 4 µM) of 0.365 and a relative viability (NCI-H441; first compound 0.04 µM) of 1.28. It also gave a relative viability (NCI-H441; first compound 0.1265 µM) of 1.16, a relative viability (NCI-H441; first compound 0.4 µM) of 1.02 and a relative viability (NCI-H441; first compound 4 µM) of 1.01. The relative viability (NCI-H460; first compound 0.04 µM) was 0.617, the relative viability (NCI-H460; first compound 0.1265 µM) was 0.638 and the relative viability (NCI-H460; first compound 0.4 µM) was 0.63. It also gave a relative viability (NCI-H460; first compound 4 µM) of 0.368, a relative viability (NCI-H838; first compound 0.04 µM) of 0.802 and a relative viability (NCI-H838; first compound 0.1265 µM) of 0.909. The relative viability (NCI-H838; first compound 0.4 µM) was 0.992 and the relative viability (NCI-H838; first compound 4 µM) was 0.861.

`CC(C)Oc1cc(Nc2nc(N[C@@H](C)c3ccc(F)cn3)ncc2Cl)n[nH]1` [AZ23] + CC1(C)CCC(c2ccc(Cl)cc2)=C(CN2CCN(c3ccc(C(=O)NS(=O)(=O)c4ccc(N[C@H](CCN5CCOCC5)CSc5ccccc5)c(S(=O)(=O)C(F)(F)F)c4)cc3)CC2)C1 [Navitoclax] (partner 0.5 µM) gave a relative viability (BEN; first compound 0.01 µM) of 0.0781, a relative viability (BEN; first compound 0.03162 µM) of 0.0578 and a relative viability (BEN; first compound 0.3162 µM) of 0.0639. For the same compound, the relative viability (CAL-12T; first compound 0.01 µM) was 0.61, the relative viability (CAL-12T; first compound 0.03162 µM) was 1.28 and the relative viability (CAL-12T; first compound 0.3162 µM) was 1.17. The relative viability (EKVX; first compound 0.01 µM) was 1.12, the relative viability (EKVX; first compound 0.03162 µM) was 1.29 and the relative viability (EKVX; first compound 0.3162 µM) was 1.02. The relative viability (HCC-15; first compound 0.01 µM) was 0.744, the relative viability (HCC-15; first compound 0.03162 µM) was 0.798 and the relative viability (HCC-15; first compound 0.3162 µM) was 0.71. It also gave a relative viability (HCC-366; first compound 0.01 µM) of 1.3, a relative viability (HCC-366; first compound 0.03162 µM) of 0.998 and a relative viability (HCC-366; first compound 0.3162 µM) of 0.883. For the same compound, the relative viability (HCC-44; first compound 0.01 µM) was 1.31, the relative viability (HCC-44; first compound 0.03162 µM) was 1 and the relative viability (HCC-44; first compound 0.3162 µM) was 0.927. For the same compound, the relative viability (LOU-NH91; first compound 0.01 µM) was 0.619, the relative viability (LOU-NH91; first compound 0.03162 µM) was 0.744 and the relative viability (LOU-NH91; first compound 0.3162 µM) was 0.746. The relative viability (NCI-H1355; first compound 0.01 µM) was 0.999, the relative viability (NCI-H1355; first compound 0.03162 µM) was 0.896 and the relative viability (NCI-H1355; first compound 0.3162 µM) was 0.833. The relative viability (NCI-H1395; first compound 0.03162 µM) was 1.12, the relative viability (NCI-H1395; first compound 0.3162 µM) was 1.21 and the relative viability (NCI-H1437; first compound 0.01 µM) was 1.33. The relative viability (NCI-H1437; first compound 0.03162 µM) was 1.29, the relative viability (NCI-H1437; first compound 0.3162 µM) was 1.13 and the relative viability (NCI-H1650; first compound 0.01 µM) was 0.925. For the same compound, the relative viability (NCI-H1650; first compound 0.03162 µM) was 1.28, the relative viability (NCI-H1650; first compound 0.3162 µM) was 1.05 and the relative viability (NCI-H1651; first compound 0.01 µM) was 0.887. The relative viability (NCI-H1651; first compound 0.03162 µM) was 1.11, the relative viability (NCI-H1651; first compound 0.3162 µM) was 1.11 and the relative viability (NCI-H1734; first compound 0.01 µM) was 0.905. The relative viability (NCI-H1734; first compound 0.03162 µM) was 0.973, the relative viability (NCI-H1734; first compound 0.3162 µM) was 0.721 and the relative viability (NCI-H1755; first compound 0.01 µM) was 1.17. It also gave a relative viability (NCI-H1755; first compound 0.03162 µM) of 1.11, a relative viability (NCI-H1755; first compound 0.3162 µM) of 1.03 and a relative viability (NCI-H1975; first compound 0.01 µM) of 1.24. It also gave a relative viability (NCI-H1975; first compound 0.03162 µM) of 1.41, a relative viability (NCI-H1975; first compound 0.3162 µM) of 1.2 and a relative viability (NCI-H2023; first compound 0.03162 µM) of 1.1. It also gave a relative viability (NCI-H2023; first compound 0.3162 µM) of 1.05, a relative viability (NCI-H2085; first compound 0.01 µM) of 1.31 and a relative viability (NCI-H2085; first compound 0.03162 µM) of 1.27. It also gave a relative viability (NCI-H2085; first compound 0.3162 µM) of 1.11, a relative viability (NCI-H441; first compound 0.01 µM) of 0.518 and a relative viability (NCI-H441; first compound 0.03162 µM) of 0.755. It also gave a relative viability (NCI-H441; first compound 0.3162 µM) of 0.769, a relative viability (NCI-H460; first compound 0.01 µM) of 1.12 and a relative viability (NCI-H460; first compound 0.03162 µM) of 1.41. The relative viability (NCI-H460; first compound 0.3162 µM) was 1.44, the relative viability (NCI-H838; first compound 0.01 µM) was 1.15 and the relative viability (NCI-H838; first compound 0.03162 µM) was 1.45. The relative viability (NCI-H838; first compound 0.3162 µM) was 1.19.
